Patent US20240108590A1, “MAINTENANCE OF PROGRAMMED CHRONIC LIVER INJURY OF FAH GENE-DEFICIENT ANIMALS AND APPLICATION THEREOF IN PREPARATION OF HETEROLOGOUS LIVER MODELS” (Jiangsu University, priority 2020, published 2024)

Legend:
UGT2B7 [1] = molecular target: T1, UGT2B7 (Homo sapiens, UniProt P16662); conditions: in human; cited from earlier work
T1 sequence (P16662 24-529): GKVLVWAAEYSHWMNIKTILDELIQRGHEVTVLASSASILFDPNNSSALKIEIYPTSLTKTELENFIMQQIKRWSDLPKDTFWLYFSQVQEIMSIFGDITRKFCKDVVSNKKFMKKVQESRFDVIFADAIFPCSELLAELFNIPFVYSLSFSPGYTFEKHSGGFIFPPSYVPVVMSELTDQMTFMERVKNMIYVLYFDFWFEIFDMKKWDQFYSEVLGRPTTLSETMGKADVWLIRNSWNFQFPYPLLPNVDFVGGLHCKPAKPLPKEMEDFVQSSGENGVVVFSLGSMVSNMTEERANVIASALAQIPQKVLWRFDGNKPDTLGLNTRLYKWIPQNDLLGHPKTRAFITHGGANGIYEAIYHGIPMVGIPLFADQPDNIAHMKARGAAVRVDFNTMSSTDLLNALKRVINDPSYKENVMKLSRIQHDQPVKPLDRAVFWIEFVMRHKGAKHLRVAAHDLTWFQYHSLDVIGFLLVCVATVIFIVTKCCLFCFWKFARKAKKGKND

UGT2B7 [2] = conditions: in rats; cited from earlier work
UGT2B7 [3] = test: UGT2B7 metabolism test in vivo; design: species or system rat; conditions: rats with liver humanization vs control group, after oral AZT
Protocol: Liver humanized and […] FRG rats were orally administered 15 mg/kg zidovudine (Wako), and peripheral blood was collected after 0, 0.5, 1, 2, 4 and 8 hours. After 30 μl of plasma was diluted 2 fold with PBS, the contents of substrates and metabolites were detected by LC-MS/MS (Agilent 1200 HPLC and ABI 4000 mass-spectrometer).

rat livers [4] = test: Sirius red staining, degree of liver fibrosis; format: in vivo; conditions: programmed NTBC 7+4 compared with 5+4
[5] = system: primary human hepatocytes (PHH); test: Measurement of human albumin secretion in serum of PHH-transplanted rats (ELISA); format: in vivo, rat
Protocol: 100 μl of rat peripheral blood was collected through the tail vein, and after coagulation at room temperature, centrifuged at 400-g for 10 minutes, with the supernatant collected to obtain serum. The secretion level of human albumin was tested according to the instructions of the Human Albumin ELISA Quantitation Set kit. Serum was diluted 10-100000 times according to the actual concentration, so that the calculated value falls within the linear range of the standard curve to obtain accurate values.
(§1) 12. Primary Hepatocyte Transplantation and Programmed NTBC Circulation • (1) Preparation before transplantation: Female FRG rats aged 7-8 weeks were intraperitoneally injected with 30 mg/kg Retrorsine 2 weeks before transplantation, and the concentration of NTBC in daily water was reduced from the normal maintenance concentration (5˜8 mg/L) to low concentration (0.2 mg/L) 1 week before transplantation. When the programmed NTBC cycle began, daily NTBC water was provided according to the method of 0.2 mg/L×7 days+5 mg/L×4 days (one cycle period of 11 days in total).

humanized livers = test: Detection of humanized liver tumorigenesis (liver/bodyweight ratio, histology, AFP); conditions: NTBC^P, 7 months after PHH transplantation
Protocol: Under the programmed NTBC controlling scheme, NTBC^P, (7+4: 7 days of 4% NTBC+4 days of 100% NTBC cycle; and Retrorsine pretreatment) mentioned above, humanized livers were obtained and liver/bodyweight ratios were calculated 7 months after transplantation of PHH in FRG rats.

[6] = system: primary human hepatocytes (PHH); test: Repopulation rate of human hepatocytes in FRG rat livers (hNuclei immunostaining); format: in vivo; conditions: cyclic NTBC withdrawal/administration based on stepped withdrawal or body weight change, Fah-deficient rats, preliminary tests
Protocol: as §1
By immunostaining of the human-specific marker hNuclei, the repopulation rates of humanized rat livers can be calculated.

[7] = system: Fah−/−Rag2−/−IL2rg−/− rats (FRG rats); test: Survival of FRG rats under NTBC supply / programmed NTBC controlling; format: in vivo, rat
Protocol: Fah^−/−Rag2^−/−IL2rg^−/− rats (FRG rats) were housed in the Experimental Animal Center of Jiangsu University.
In the past feeding, FRG rats were daily supplied with 5-8 mg/L. In the present disclosure, the lowest dose of 5 mg/L NTBC was set as 100% NTBC; According to the weight (250-300 g) and the amount of water (25-50 ml/day) of rats, we can get: • 4% NTBC: equivalent to an average of 0.03 mg/kg/day; • 100% NTBC: equivalent to an average of 0.75 mg/kg/day. • (2) The transplantation was performed under an anesthesia machine using isoflurane. The rat was fixed with its abdomen facing upward, and cleaned and disinfected with iodine and alcohol after dehairing. • (3) By cutting the epidermis and muscle layers, the hepatic portal vein was found. 2×10^6 human primary hepatocytes (resuspended in 800 μl DMEM+10% FBS) were slowly injected with a 26G needle. After completing the injection and paused for a few seconds, the needle was then pulled out, with the needle port quickly pressed with a sterile cotton swab. • (4) After pressing for about 1 minute, with no blood effusion be observed, the muscle and epidermis were sutured and the wound was disinfected with alcohol cotton.
The optimal NTBC maintenance concentration was determined by comparing the survival rate of rats at different NTBC concentrations (0%, 1%, 4%, 10%, 100%).
Due to a long period of the humanization process and in order to further improve the long-term survival rate of rats under liver injury, the inventors designed a series of NTBC dosage regimens, which are called Programmed NTBC controlling scheme with a fixed cycle period (Programmed NTBC controlling, NTBC^P), including 5, 7 and 9 days of maintenance in 4% NTBC conditions, respectively, and 4 days of 100% NTBC recovery after that to alleviate accumulated liver injury (FIG. 2C).

Afp = test: Quantitative qPCR of rat Afp gene in liver; format: in vivo; conditions: long-term programmed NTBC controlling (5+4 and 7+4)
Protocol: 1 μg RNA was reverse-transcribed into cDNA with Revert Aid RT kit according to manufacturer's instructions. According to the instructions of THUNDERBIRD SYBR qPCR Mix kit, cDNA was amplified and quantitatively analyzed on a quantitative PCR machine. Relative expression levels of target genes were based on ACTB as an internal reference. All data were repeated at least twice.

[8] = system: hALB-positive hepatocytes; test: Ki67 and hALB counterstaining of humanized livers; format: in vivo, rat; conditions: NTBC^P, 7 months after transplantation
Protocol: 8. Immunofluorescence Staining • (1) Frozen sections (7 μm) were fixed in 4% PFA at room temperature for 10 minutes, or in methanol:acetone (1:1) at −30° C. for 30 minutes. • (2) Wash three times with 0.1% tween-PBS for 5 minutes each time. • (3) 10% goat or donkey serum was used for blocking for 60 minutes at room temperature. • (4) The primary antibody was used for incubation overnight at 4° C. • (5) Wash three times with 0.1% tween-PBS for 5 minutes each time. • (6) The secondary antibody conjugated with fluorescein was used for incubation at room temperature for 60 minutes. • (7) Wash three times with PBS for 5 minutes each time. • (8) DAPI was added and the sections were mounted by mounting medium and preserved.

FRG rats = test: Liver function test (serum ALT and AST); format: in vivo, rat
Protocol: The content of alanine aminotransferase (ALT) and aspartate aminotransferase (AST) in rat serum was measured according to the instructions of biochemical analyzer FUJI DRI-CHEM 7000V (Fujifilm. Japan).

rat livers [9] = test: Ki67 staining of rat livers with or without RS pretreatment; format: in vivo; conditions: RS pretreatment vs none, after 2 months of programmed NTBC controlling
Protocol: 7. Immunohistochemistry • (1) The steps of dewaxing and rehydration are the same as above. • (2) Draw a circle around the sample with an ImmunoPen, drop a drop of 3% H2O2 for 15 minutes at room temperature for blocking endogenous peroxidase. • (3) Wash twice with PBS for 5 minutes each time. • (4) The blocking was carried with 1:20 Normal horse serum (dissolved in 1% BSA-PBS), incubated at room temperature for 20 minutes and washed for 3 times with PBS. • (5) The primary antibody was added, then the slices were put in a humid box, sealed and kept overnight at 4 degrees. • (6) Wash three times with PBS for 5 minutes each time. • (7) Secondary antibody was added and incubated at room temperature for 30 minutes. Wash three times with PBS for 5 minutes each time. • (8) AB solution in ABC kit (1:100 dilution of solution A and B) was added and incubated at room temperature for 30 minutes. Wash three times with PBS for 5 minutes each time. • (9) DAB coloration was carried and the time for coloration was adjusted according to different antibodies. • (10) Hematoxylin counterstaining for 20 minutes. Rinse with tap water for half an hour. • (11) Gradient dehydration: 50% ethanol, 70% ethanol, 80% ethanol, 90% ethanol, 100% ethanol, each for 2 minutes. • (12) After 15-30 minutes of xylene, sections were sealed with neutral resin and saved. […]

Q: For `Cc1cn([C@H]2C[C@H](N=[N+]=[N-])[C@@H](CO)O2)c(=O)[nH]c1=O` [AZT, zidovudine], which “AZT metabolized to AZT-5′-glucuronide” value (UGT2B7 [1]) is on record?
A: The value was 75%.

Q: And the “metabolic conversion rate of AZT to AZT-5′-glucuronide” value (UGT2B7 [2])?
A: Its value is 10%.

Q: And the “AZT-5′-glucuronide concentration” value (UGT2B7 [3])?
A: Its value is “significantly higher”.

Q: Which “degree of liver fibrosis” value (rat livers [4]) does the source give for `O=C1CCCC(=O)C1C(=O)c1ccc(C(F)(F)F)cc1[N+](=O)[O-]` [NTBC, 2-(2-nitro-4-trifluoromethylbenzoyl)-1.3 cyclohexanedione] here?
A: The value was “more significant”.

Q: And the “human albumin secretion level, mean” value ([5]; NTBC^P (7+4) with Retrorsine pretreatment, 7 months after PHH transplantation)?
A: Its value is 1.7 ± 0.3 mg/mL.

Q: And the “AFP gene and protein levels” value (humanized livers)?
A: Its value is “no abnormal up-regulation”.

Q: And the “tumor formation (histology)” value (humanized livers)?
A: The value was “no tumor formation”.

Q: What about the liver/bodyweight ratio (humanized livers; vs nontransplanted controls) of the same compound?
A: Its liver/bodyweight ratio is “not significantly increased”.

Q: What about the “proportion of human hepatocyte repopulation” value [6] of the same compound?
A: The value was “less than 10%”.

Q: And the median survival time ([7]; NTBC concentration 4% of the maintenance dose (5 mg/L))?
A: Its median survival time is 22 days.

Q: And the “rats surviving for at least 20 weeks” value ([7]; PHH-transplanted FRG rats, NTBC^P (7+4) with Retrorsine pretreatment)?
A: Its value is 6/7.

Q: And the “healthy survival of FRG rats” value ([7]; maintenance of 100% NTBC (5 mg/L in daily water))?
A: The value was “at least 1.5 years”.

Q: And the “expression of rat liver oncogene Afp” value (Afp)?
A: Its value is “did not lead to abnormal upregulation”.

Q: And the “proportion of Ki67-positive cells in hALB-positive hepatocytes” value [8]?
A: Its value is “more than 10%”.

Q: What about the “levels of ALT and AST” value (FRG rats; 4% NTBC compared with 10% NTBC) of the same compound?
A: The value was “higher levels of ALT and AST”.

Q: What about the “levels of ALT and AST” value (FRG rats; programmed NTBC 7+4 compared with 5+4) of the same compound?
A: The value was “significantly higher”.

Q: Which results are given for Retrorsine?
A: proportion of Ki67 positive cells in rat livers (rat livers [9]): significantly lower; human albumin secretion level ([5]; RS pretreatment vs none, within 4 weeks after PHH transplantation, NTBC 7+4): increased significantly; human albumin secretion level ([5]; Retrorsine combined with partial hepatectomy, before development of NTBC^P scheme): 90 µg/mL
